Counter-ions that a name gives are not always drawn. Like-named read-outs stand apart in the source and are kept apart here. Marks after values point to notes of the source that are not given here.
Columns and labels:
[1] = molecular target: human LSD1(172-833) (Homo sapiens (Human), UniProt O60341); assay: Measurement of LSD1 inhibitory activity (time-resolved fluorescence, biotin-histone H3 mono methylated K4 peptide); format: biochemical
In short: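 Remaining signal detected by TR-FRET after 60 min with europium anti-histone H3 antibody and streptavidin-XL665 in potassium fluoride/0.1% BSA.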

[2] = system: white blood cell number, red blood cell number, platelet number; assay: Evaluation of blood cell number in mouse; format: in vivo; details: oral, Day 2 after administration
In short: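 Male ICR mice dosed orally at 1, 10, 50 or 100 mg/kg (suspension in 0.5% methylcellulose/0.02% citric acid/water); whole blood collected on Day 2. White cell, red cell and platelet counts per unit volume by automated haematology analyser, expressed as % of mean of untreated control group.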

[3] = molecular target: MAO-B enzyme (Homo sapiens (Human), UniProt P27338); assay: Measurement of MAO-B inhibitory activity (MAO-Glo Assay); details: read-out: MAO-B IC50 value;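 also: luminescence read-out, compound preincubated 10 min with enzyme then reacted 60 min at room temperature, inhibition relative to enzyme reaction without compound, blank lacking enzyme and compound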
Chain of MAO-B enzyme (P27338 whole entry): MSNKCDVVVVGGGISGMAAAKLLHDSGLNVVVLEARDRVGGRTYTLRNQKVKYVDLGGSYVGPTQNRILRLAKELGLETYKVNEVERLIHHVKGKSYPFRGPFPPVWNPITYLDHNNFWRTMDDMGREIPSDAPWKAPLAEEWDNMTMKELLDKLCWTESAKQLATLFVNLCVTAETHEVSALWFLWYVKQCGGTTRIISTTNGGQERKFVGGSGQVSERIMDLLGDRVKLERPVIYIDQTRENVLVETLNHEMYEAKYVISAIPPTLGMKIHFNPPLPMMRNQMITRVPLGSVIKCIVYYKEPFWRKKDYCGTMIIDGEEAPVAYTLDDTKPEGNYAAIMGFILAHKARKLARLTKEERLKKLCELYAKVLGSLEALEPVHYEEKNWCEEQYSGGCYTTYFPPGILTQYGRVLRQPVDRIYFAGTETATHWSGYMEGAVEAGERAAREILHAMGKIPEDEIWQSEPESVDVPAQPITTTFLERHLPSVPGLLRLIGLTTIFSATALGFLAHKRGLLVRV
Method: The MAO-B inhibitory activity evaluation described below followed the protocol of MAO-Glo (registered trademark) Assay of Promega KK.
A test compound dissolved in 4% DMSO was added by 12.5 μL to 25 μL reaction solution (100 mM HEPES (pH 7.5), 5% glycerol, 10% DMSO) containing 400 ng of MAO-B enzyme (Sigma-Aldrich Co. LLC.), and the mixture was reacted at room temperature for 10 min. […] After reaction at room temperature for 60 min, Luciferine detection reagent (Promega KK) (50 μL) was added to terminate the reaction. After reaction at room temperature for 20 min with stirring, the luminescence was measured by Envision (PerkinElmer). The MAO-B inhibitory rate (%) of the test compound was calculated by the following formula. inhibitory rate(%)=(1−(test compound count−blank)÷(control−blank))×100
The count of the MAO-B enzyme reaction mixture under compound non-addition conditions is indicated as control, and the count under compound non-addition and MAO-B enzyme non-addition conditions is indicated as blank.

[4] = system: Gad1 H3K4me2 level in rat primary culture neurons; assay: Gad1 H3K4 methylation induction activity in rat primary culture neurons (ChIP-qPCR); format: cell-based; details: Neuron, 72 h, control without compound = 100%
Method: Gad1 H3K4 Methylation Induction Activity in Rat Primary Culture Neurons
Thereafter, the compound was added to final concentrations of 1 or 10 μM, and the cells were further cultured for 3 days. The culture supernatant was aspirated, ice-cold PBS was added, and the cell suspension was collected on ice using CELL SCRAPER (IWAKI). […] (750 μL). Furthermore, 0.3% NP40/cell lysis buffer 1 (750 μL) was added, and the cells were lysed by incubating for 5 min on ice.
Using the DNA obtained by the chromatin immunoprecipitation as a template, quantitative PCR of the Gad1 gene upstream genomic region was performed, and the measurement value was taken as the Gad1 H3K4me2 level. […] The Gad1 H3K4me2 induction by the compound was expressed by the H3K4me2 level when the compound was added, as compared to the H3K4me2 level of the control (without addition of the compound) as 100%.

[5] = molecular target: MAO-A enzyme (Homo sapiens (Human), UniProt P21397); assay: Measurement of MAO-A inhibitory activity (MAO-Glo Assay); format: biochemical
Chain of MAO-A enzyme (P21397 whole entry): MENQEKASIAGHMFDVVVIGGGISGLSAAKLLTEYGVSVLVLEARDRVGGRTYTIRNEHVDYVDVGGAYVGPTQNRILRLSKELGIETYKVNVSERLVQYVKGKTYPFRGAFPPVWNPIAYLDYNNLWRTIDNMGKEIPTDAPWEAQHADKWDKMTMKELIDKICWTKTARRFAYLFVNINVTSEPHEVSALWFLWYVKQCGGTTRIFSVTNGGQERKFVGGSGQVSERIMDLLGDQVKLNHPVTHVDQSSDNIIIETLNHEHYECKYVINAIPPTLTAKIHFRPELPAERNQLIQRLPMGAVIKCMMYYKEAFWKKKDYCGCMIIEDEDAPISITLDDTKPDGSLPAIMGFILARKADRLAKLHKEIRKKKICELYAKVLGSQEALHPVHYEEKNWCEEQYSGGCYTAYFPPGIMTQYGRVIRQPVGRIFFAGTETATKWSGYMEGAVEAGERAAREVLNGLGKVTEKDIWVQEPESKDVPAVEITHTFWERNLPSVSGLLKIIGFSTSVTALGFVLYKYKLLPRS
Method: The MAO-A inhibitory activity evaluation described below followed the protocol of MAO-Glo (registered trademark) Assay of Promega KK.
A test compound dissolved in 4% DMSO was added by 12.5 μL to 25 μL reaction solution (100 mM HEPES (pH 7.5), 5% glycerol) containing 400 ng of MAO-A enzyme (Sigma-Aldrich Co. LLC.), and the mixture was reacted at room temperature for 10 min. […] After reaction at room temperature for 60 min, Luciferine detection reagent (Promega KK) (50 μL) was added to terminate the reaction. After reaction at room temperature for min with stirring, the luminescence was measured by Envision (PerkinElmer). The MAO-A inhibitory rate (%) of the test compound was calculated by the following formula. inhibitory rate(%)=(1−(test compound count−blank)÷(control−blank))×100
The count of the MAO-A enzyme reaction mixture under compound non-addition conditions is indicated as control, and the count under compound non-addition and MAO-A enzyme non-addition conditions is indicated as blank.

[6] = Evaluation of hippocampal distribution in mouse; format: in vivo; details: male ICR mice, 10 mg/kg oral; for concentration at 1 h: 1 hr after administration; for concentration at 0.5 h: 0.5 hr after administration
In short: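 Male ICR mice dosed orally at 10 mg/kg as suspension in 0.5% methylcellulose/0.02% citric acid/water. Plasma and hippocampus sampled together at 0.5, 1 or 1.5 h; LC/MS/MS concentrations gave hippocampus/plasma ratio.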

[7] = Rattus norvegicus, read-out: Gad1 H3K4me2 induction activity (%), compound 1 μM, 3 days, rat primary culture neurons
[8] = Rattus norvegicus, read-out: Gad1 H3K4me2 induction activity (%), compound 10 μM, 3 days, rat primary culture neurons
[9] = hippocampus, read-out: hippocampus concentration (mean)
[10] = plasma, read-out: plasma concentration (mean)
[11] = compound 1 μM, 3 days, rat primary culture neurons, read-out: Gad1 H3K4me2 induction activity (%)
[12] = compound 10 μM, 3 days, rat primary culture neurons, read-out: Gad1 H3K4me2 induction activity (%)

| Compound | IC50 [1] [µM] | platelet number, percentage of compound administration group compared to control group, mean ([2]; 10 mg/kg) [%] | red blood cell number, percentage of compound administration group compared to control group, mean ([2]; 10 mg/kg) [%] | white blood cell number, percentage of compound administration group compared to control group, mean ([2]; 10 mg/kg) [%] | platelet number, percentage of compound administration group compared to control group, mean ([2]; 50 mg/kg) | red blood cell number, percentage of compound administration group compared to control group, mean ([2]; 50 mg/kg) | white blood cell number, percentage of compound administration group compared to control group, mean ([2]; 50 mg/kg) | IC50 [3] [µM] | activity at 1 µM [4, 7] [%] | activity at 10 µM [4, 8] [%] | IC50 [5] [µM] | platelet number, percentage of compound administration group compared to control group, mean ([2]; 100 mg/kg) [%] | red blood cell number, percentage of compound administration group compared to control group, mean ([2]; 100 mg/kg) [%] | white blood cell number, percentage of compound administration group compared to control group, mean ([2]; 100 mg/kg) [%] | concentration at 1 h [6, 9] [ng/g] | concentration at 1 h [6, 10] [ng/mL] | activity at 1 µM [4, 11] [%] | activity at 10 µM [4, 12] [%] | concentration at 0.5 h [6, 9] [ng/g] | concentration at 0.5 h [6, 10] [ng/mL] |
| --- | --- | --- | --- | --- | --- | --- | --- | --- | --- | --- | --- | --- | --- | --- | --- | --- | --- | --- | --- | --- |
| O=C(Nc1ccc(-c2ncccn2)cc1)c1cccc([C@@H]2C[C@H]2NCC2CC2)c1 (relative stereo) [Example 58, 3-(trans-2-((cyclopropylmethyl)amino)cyclopropyl)-N-(4-(pyrimidin-2-yl)phenyl)benzamide dihydrochloride] | < 0.1 | 99.4 | 99.7 | 94.2 | 102.9^a % | 101.3^a % | 85.8^a % | > 10 | 126 | 116 | > 10 | – | – | – | – | – | – | – | – | – |
| O=C(Nc1cnn(CC2CC2)c1)c1cccc([C@@H]2C[C@H]2NCC2CC2)c1 (relative stereo) [Example 77, 3-(trans-2-((cyclopropylmethyl)amino)cyclopropyl)-N-(1-(cyclopropylmethyl)-1H-pyrazol-4-yl)benzamide dihydrochloride] | < 0.1 | 99.6 | 98.2 | 147.9 | – | – | – | > 10 | 165 | 163 | > 10 | 96.6 | 100.9 | 98.2 | – | – | – | – | – | – |
| Cc1cc(NC(=O)c2cccc([C@@H]3C[C@H]3NCC3CC3)c2)on1 (relative stereo) [Example 106, 3-(trans-2-((cyclopropylmethyl)amino)cyclopropyl)-N-(3-methyl-1,2-oxazol-5-yl)benzamide hydrochloride] | < 0.1 | 94.6 | 99.4 | 114.8 | – | – | – | > 10 | – | – | > 10 | 97.2 | 101.9 | 89.0 | 107 | 33 | 139 | 132 | – | – |
| Cc1nnc(NC(=O)c2ccc(F)c([C@@H]3C[C@H]3NCC3CC3)c2)s1 (relative stereo) [Example 109, 3-(trans-2-((cyclopropylmethyl)amino)cyclopropyl)-4-fluoro-N-(5-methyl-1,3,4-thiadiazol-2-yl)benzamide dihydrochloride] | < 0.1 | 94.3 | 96.3 | 88.3 | – | – | – | > 10 | – | – | > 10 | 97.8 | 98.2 | 107.4 | – | – | 117 | 96 | 1610 | 1250 |
| Cc1ncc(NC(=O)c2cccc([C@@H]3C[C@H]3NC3CCOCC3)c2)s1 (relative stereo) [Example 212, N-(2-methyl-1,3-thiazol-5-yl)-3-(trans-2-(tetrahydro-2H-pyran-4-ylamino)cyclopropyl)benzamide dihydrochloride] | < 0.1 | – | – | – | – | – | – | > 10 | – | – | > 10 | – | – | – | – | – | 201 | 289 | – | – |
